According to ChEMBL document CHEMBL5370589, “Heterologous Production and Biosynthesis of Threonine-16:0dioic acids with a Hydroxamate Moiety” (J Nat Prod, 2023):
Calls of active or inactive are those of the source. The calls are words filed in the database; no cut-off is given here.

Experiments:
[1] = Metal chelating activity assessed as compound-[…] complex formation by chrome-azurol S assay
Staphylococcus aureus = assay: Antibiotic activity against Staphylococcus aureus Newman assessed as reduction in bacterial cell growth at 0.03 to 64 microg/ml; assay type: functional, organism-based; conditions: dose 0.03-64 µg/ml
Escherichia coli = assay: Antibiotic activity against wild-type Escherichia coli BW25113 assessed as reduction in bacterial cell growth at 0.03 to 64 microg/ml; assay type: functional, organism-based; conditions: dose 0.03-64 µg/ml
Staphylococcus carnosus = assay: Antibiotic activity against Staphylococcus carnosus DSM-20501 assessed as reduction in bacterial cell growth at 0.03 to 64 microg/ml; assay type: functional, organism-based; conditions: dose 0.03-64 µg/ml
Bacillus subtilis = assay: Antibiotic activity against Bacillus subtilis DSM-10 assessed as reduction in bacterial cell growth at 0.03 to 64 microg/ml; assay type: functional, organism-based; conditions: dose 0.03-64 µg/ml
Kocuria rhizophila = assay: Antibiotic activity against Kocuria rhizophila DSM-348 assessed as reduction in bacterial cell growth at 0.03 to 64 microg/ml; assay type: functional, organism-based; conditions: dose 0.03-64 µg/ml
Enterococcus mundtii = assay: Antibiotic activity against Enterococcus mundtii DSM-4840 assessed as reduction in bacterial cell growth at 0.03 to 64 microg/ml; assay type: functional, organism-based; conditions: dose 0.03-64 µg/ml
Pseudomonas putida = assay: Antibiotic activity against Pseudomonas putida assessed as reduction in bacterial cell growth at 0.03 to 64 microg/ml; assay type: functional, organism-based; conditions: dose 0.03-64 µg/ml
Micrococcus luteus = assay: Antibiotic activity against Micrococcus luteus DSM-20030 assessed as reduction in bacterial cell growth at 0.03 to 64 microg/ml; assay type: functional, organism-based; conditions: dose 0.03-64 µg/ml
Erwinia persicina = assay: Antibiotic activity against Erwinia persicina DSM-19328 assessed as reduction in bacterial cell growth at 0.03 to 64 microg/ml; assay type: functional, organism-based; conditions: dose 0.03-64 µg/ml
HepG2 = assay: Cytotoxicity against human HepG2 cells assessed as reduction in cell viability; assay type: toxicity, cell-based
[2] = Potency index, ratio of deferoxamine EC50 to compound EC50 for metal chelating activity assessed as compound-[…] complex formation by chrome-azurol S assay
[3] = Metal chelating activity assessed as compound-[…] complex formation at 10 to 100 uM by chrome-azurol S assay; conditions: dose 10-100 µM

Row | SMILES | EC50 [1] [µM] | Activity (Staphylococcus aureus) | Activity (Escherichia coli) | Activity (Staphylococcus carnosus) | Activity (Bacillus subtilis) | Activity (Kocuria rhizophila) | Activity (Enterococcus mundtii) | Activity (Pseudomonas putida) | Activity (Micrococcus luteus) | Activity (Erwinia persicina) | Activity (HepG2) | Ratio EC50 [2] | Activity [3]
1 | C[C@@H](O)[C@H](C(=O)O)N(O)C(=O)CCCCCCCCCCCCCCC(=O)O | 58 | inactive | inactive | inactive | inactive | inactive | inactive | inactive | inactive | inactive | Non-Toxic | 5 | 
2 | CC(=O)N[C@@H](CSC(CCCCCCCCCCCCCC(=O)O)C(=O)N[C@@H](C(=O)O)[C@@H](C)O)C(=O)O (stereo partly specified) |  | inactive | inactive | inactive | inactive | inactive | inactive | inactive | inactive | inactive | Non-Toxic |  | inactive
3 | O=C(O)CN(CCN(CC(=O)O)CC(=O)O)CC(=O)O [EDETIC ACID] | 18 |  |  |  |  |  |  |  |  |  |  |  | 
4 | CC(=O)N(O)CCCCCNC(=O)CCC(=O)N(O)CCCCCNC(=O)CCC(=O)N(O)CCCCCN [DEFEROXAMINE] | 11 |  |  |  |  |  |  |  |  |  |  |  | 
5 | CC(CCCCCCCCCCCCC(=O)N(O)[C@@H](C(=O)O)[C@@H](C)O)C(=O)O (stereo partly specified) | 75 |  |  |  |  |  |  |  |  |  |  |  | 
